{"source": "patent US20160374979A1", "about": "“Method of Treatment of Alopecia with Monoterpenoids” (CELLMID LIMITED, priority 2013, published 2016)", "molecules": {"B1": {"name": "FGF-5: FGF-5 protein (R&D Systems) added to follicle culture medium at 300 ng/mL (protein, UniProt P12034 21-268, looked up)", "Fibroblast growth factor 5": "HGEKRLAPKGQPGPAATDRNPRGSSSRQSSSSAMSSSSASSSPAASLGSQGSGLEQSSFQWSPSGRRTGSLYCRVGIGFHLQIYPDGKVNGSHEANMLSVLEIFAVSQGIVGIRGVFSNKFLAMSKKGKLHASAKFTDDCKFRERFQENSYNTYASAIHRTEKTGREWYVALNKRGKAKRGCSPRVKPQHISTHFLPRFKQSEQPELSFTVTVPEKKKPPSPIKPKIPLSAPRKNTNSVKYRLKFRFG"}}, "key": {"alopecia patients": {"test_system": "alopecia patients", "conditions": "cited from earlier work"}, "[1]": {"test_system": "murine vibrissae follicles", "test": "Hair shaft elongation of murine vibrissae follicles cultured ex vivo", "set-up": "species or system C3H mice", "conditions": "exogenous FGF-5 300 ng/mL, 8 days, versus control (FIGS. 20 and 21)", "text": "Five week old male C3H mice (supplied by Japan SLC, lnc., Hamamatsu, Japan) were used for isolation of vibrissae follicles. The mice were sacrificed and the vibrissae follicles were carefully dissected from the mystacial pad. Briefly, the mystacial pad was cut into two sides (left and right). The skin cut, picked at the edge by tweezers, was washed in (i) 70% Ethanol for 30 seconds, (ii) PBS for 10 seconds, (iii) fresh PBS for 10 seconds, and (iv) another fresh PBS for 10 seconds. This washing process was repeated twice. After washing, the skin cut was placed inverted to expose the vibrissae follicles in Dulbecco's Modified Eagle's Medium (DMEM; Wako Pure Chemical, Osaka, Japan) at 37° C. Under a dissecting microscope, the surrounding tissue was removed from the follicles using tweezers, carefully so as not to destroy the structure of the follicles. The isolated follicles were then placed immediately into Williams' E medium (Life Technologies, Carlsbad, USA).\nFrom the isolated mouse vibrissae follicles, only early anagen follicles were selected and randomized into groups with 30 follicles per group. […]\nFollicles in each of the treatment and control groups were incubated at 37° C. at 5% CO2 for 8 days, while exchanging the respective culture mediums every 2 days. From Day 1, elongation of hair shafts was observed and the elongation length was measured for each hair shaft every 24 hours from Day 1 to Day 8 using a micrometer under microscope. […]\nFollicles in each of the treatment and control groups were incubated at 37° C. at 5% CO2 for 5 days, while exchanging the culture medium every 3 days. From Day 1, elongation of hair shafts was observed and the elongation length was measured for each hair shaft every 24 hours from Day 1 to Day 5. using a micrometer under microscope. […]"}}, "data": [{"molecule": "Nc1cc(N2CCCCC2)nc(N)[n+]1[O-]", "note": "[Minoxidil]", "values": [{"measurement": "patients with irritation of the scalp (dryness, scaling, itching, redness)", "setting": "alopecia patients; 2% solution", "result": "approximately 7%"}]}, {"molecule": "CC(C)(C)NC(=O)[C@H]1CC[C@H]2[C@@H]3CC[C@H]4NC(=O)C=C[C@]4(C)[C@H]3CC[C@]12C", "note": "[finasteride, Finasteride]", "values": [{"measurement": "balding male recipients with poor or no response", "setting": "alopecia patients; finasteride treatment", "result": "≥ 35", "unit": "%"}]}, {"molecule": "B1", "values": [{"measurement": "rate of hair shaft elongation", "setting": "[1]", "result": "slow the rate of hair shaft elongation over time"}]}]}
